According to US8071810B2, “C5a receptor antagonists” (Jerini AG, priority 2005, dated 2011):
Converted amounts (≈) assume the structure as drawn.

Tests used:
[1] = biological target: T1, human C5a receptor (CD88) (Homo sapiens, UniProt P21730); experiment: C5a induced enzyme (glucosaminidase) release assay in RBL cells expressing the human C5a receptor (Example 28); type: cell-based; settings: inhibition of C5a induced enzyme release, RBL cells with human C5aR; read-out: Activity-range (antagonistic activity, IC50 enzyme release)
T1 construct: expressed in transfected cells; host or cells: rat basophilic leukemia (RBL) cells, stably transfected
T1 sequence (P21730 1-350): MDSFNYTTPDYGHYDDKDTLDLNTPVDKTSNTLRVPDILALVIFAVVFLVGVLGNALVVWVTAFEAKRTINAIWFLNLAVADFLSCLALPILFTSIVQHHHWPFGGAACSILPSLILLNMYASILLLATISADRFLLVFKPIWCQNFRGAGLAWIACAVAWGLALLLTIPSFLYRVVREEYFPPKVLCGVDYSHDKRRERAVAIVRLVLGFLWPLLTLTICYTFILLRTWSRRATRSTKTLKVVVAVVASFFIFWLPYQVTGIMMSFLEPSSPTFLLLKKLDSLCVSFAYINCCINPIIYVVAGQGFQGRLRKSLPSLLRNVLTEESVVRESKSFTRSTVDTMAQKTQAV
Procedure, shortened: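 Rat basophilic leukemia (RBL) cells expressing human C5a receptor, at 2×10^6 cells/ml, primed with cytochalasin B, then incubated with test compound 10 min at 37 °C.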

[2] = Solubility in aqueous HEPES buffer by HPLC (Example 33); type: physicochemical; settings: kinetic from dmso stock
Procedure: To determine the solubility the compound to be measured is dissolved (e.g, […] of a 5 mM solution in DMSO) in organic solvent (e.g. 198 μl DMSO) as well as in aqueous buffer solution (e.g. 198 μl HEPES buffer). Both solutions are analyzed via analytical HPLC and the areas under the peaks are compared. The value for the organic solution is taken as 100%.

[3] = biological target: T2, C5a receptor (Homo sapiens, UniProt P21730); experiment: Binding of 125I-C5a to human C5aR transfected HEK293 cells (Example 27); parameters: expressed in transfected cells; host or cells: HEK293 cells; settings: 125I-C5a tracer, read-out: IC50 for the inhibition of the binding of C5a to the C5a receptor
T2 sequence (P21730 1-350): T1 sequence (P21730 1-350)
Procedure: The binding studies are done as determination of IC50 values with radioactively labeled C5a (125I) as tracer. For this purpose, human C5aR transfected HEK293 cells are adjusted to a concentration of […]. 30 μl of the cell suspension are added into a microtiter plate. Then the C5a receptor antagonists are added followed by 10 minutes pre-incubation at room temperature. After that, 10 μl of labelled C5a are added (15.000 cpm). The mixture is now incubated over ice for 30 minutes. After this the cells are isolated by means of a filter plate (Millipore MHVB 4510) and washed two times with 100 μl HAG-CM each (see example 32). The cells are dried and, after transferring the filter plate onto the adapter plate (Canberra 6005178), 50 μl/well Microscint 0 are added and the plate is measured in the scintillation counter.

[4] = AB permeability in TC-7 cell based assay (Example 34); type: in vitro ADME; settings: human, Caco-2, TC-7 cells, apical pH 6.5 / basolateral pH 7.4, 120 min
Procedure: Compounds to be tested are prepared at a concentration of 50 μM in HBSS-MES (5 mM, pH 6.5) (from a 10 mM stock solution in 100% DMSO). ^14C-mannitol (about 4 μM) is added and the solution is mixed and centrifuged. The supernatant is added to the apical side of a TC-7 cell culture (passage 15, in 24 well transwell plate) to obtain a DMSO concentration of 1%. At the basolateral side HBSS-HEPES (5 mM, pH 7.4) is placed. Subsequently, the cells are incubated for 120 minutes at 37° C. The integrity of the TC-7 cell layer is checked by means of the added mannitol (Papp <2.5 10^−6 cm/s). The Permeabilität Papp [cm/s] is equal to (VR×CR120)/(Δt×A×(CD,mid−CR,mid)). VR is the volume of the receiver chamber, CR120 the concentration the test compound in the receiver chamber after 120 minutes, Δt the incubation time, A the area of the TC-7 cell layer, CD,mid the midpoint concentration of the test substance in the donor chamber and CR,mid the concentration of the test compound in the receiver chamber.

CCc1c(N)cc(Cl)c(CC)c1NC(=O)N(Cc1ccc(Cl)cc1)c1ccc(CC(F)(F)F)cc1 [compound 103, 3-(3-amino-5-chloro-2,6-diethyl-phenyl)-1-(4-chloro-benzyl)-1-[4-(2,2,2-trifluoro-ethyl)-phenyl]-urea]
IC50 [1]: 60 to 200 nM | solubility [2]: 7 µM (≈ 3.67 µg/mL) | IC50 [3]: 58.6 nM

CCc1ccc(N(Cc2ccc(C)nc2)C(=O)Nc2c(CC)c(N)cc(Cl)c2CC)cc1 [compound 106, 3-(3-amino-5-chloro-2,6-diethyl-phenyl)-1-(4-ethyl-phenyl)-1-(6-methyl-pyridin-3-ylmethyl)-urea]
IC50 [1]: 60 to 200 nM | solubility [2]: 83 µM (≈ 37.4 µg/mL) | Papp A→B at 120 min, 50 μM [4]: 22.3 ×10⁻⁶ cm/s

CCc1ccc(N(C(=O)Nc2c(CC)c(N)cc(Cl)c2CC)C(C)c2ccc3c(c2)ncn3C)cc1 (stereo not drawn) [compound 122, 3-(3-amino-5-chloro-2,6-diethyl-phenyl)-1-(4-ethyl-phenyl)-1-[1-(1-methyl-1H-benzoimidazol-5-yl)-ethyl]-urea]
IC50 [1]: 60 to 200 nM | solubility [2]: 29 µM (≈ 14.6 µg/mL) | Papp A→B at 120 min, 50 μM [4]: 3.5 ×10⁻⁶ cm/s
